Assay results reported in patent publication US5013722A, “Cholecystokinin analogs for controlling appetite” (Hoffmann-LaRoche Inc., priority 1989, dated 1991).
Where a SMILES comes first, the peptide text is derived from it. [ ]: non-standard residue; d: D form. The star is where a group is joined. Thr(SO3H) = C[C@@H](OS(=O)(=O)O)[C@H](N)C(=O)O; sY = N[C@@H](Cc1ccc(OS(=O)(=O)O)cc1)C(=O)O; N(CH2CH2NHAc)Gly = CC(=O)NCCNCC(=O)O; NMeF = CN[C@@H](Cc1ccccc1)C(=O)O; Nle = CCCC[C@H](N)C(=O)O; For = O=C*

Tests used:
[1] = biological target: T1, receptors in rat pancreas (3H-CCK-8-(SO3 H) binding) (Rattus norvegicus, UniProt P30551); assay: In vitro receptor binding assay, rat pancreas homogenate, 3H-CCK-8-(SO3H) radioligand; conditions: 0.15 nM radioligand, 30 min, 25° C.; read-out: Rat Pancreas IC50 (inhibition of specific 3H-CCK-8-(SO3H) binding)
T1 construct: receptors in homogenized preparations of rat pancreatic cells and bovine striata; from tissue; host or cells: rat pancreas homogenate (48,000 x g pellet)
T1 sequence (P30551 1-444): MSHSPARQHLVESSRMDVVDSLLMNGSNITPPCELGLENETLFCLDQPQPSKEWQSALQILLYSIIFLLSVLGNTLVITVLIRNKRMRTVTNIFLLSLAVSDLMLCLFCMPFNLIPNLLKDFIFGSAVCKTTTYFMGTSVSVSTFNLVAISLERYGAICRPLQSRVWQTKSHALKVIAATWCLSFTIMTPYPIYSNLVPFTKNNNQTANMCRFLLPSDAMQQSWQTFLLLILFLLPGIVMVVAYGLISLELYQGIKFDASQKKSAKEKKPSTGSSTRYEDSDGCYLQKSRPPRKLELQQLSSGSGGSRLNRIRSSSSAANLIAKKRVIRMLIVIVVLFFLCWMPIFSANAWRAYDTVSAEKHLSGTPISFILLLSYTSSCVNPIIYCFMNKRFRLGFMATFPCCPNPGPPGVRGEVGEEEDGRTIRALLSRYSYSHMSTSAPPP
Experimental: This strategy was utilized to minimize central nervous system side effects by identifying peptides with peripheral receptor selectivity. […] The tissue was homogenized 2 x for approx. 15 sec. at 0° C. using a Polytron homogenizer at a setting of 6. The tissue was isolated by centrifugation at 48,000 x g for 10 min. at 0° C. […] Samples were incubated for 30 min. at 25° C. and the incubation terminated by pouring the mixture onto a pre-wet Whatman GF/B filter on a Sandbeck Vacuum Filtration Manifold. The incubation tubes were washed with 2×3 ml of ice-cold HEPES Buffer #2 and the wash filtered through the GF/B filter. The filter was air dried for 10 min. and then placed in a scintillation vial with 12 ml of Beckman HP/b Ready-Solv scintillation cocktail. The vials were shaken for 2 hours and then counted using a Beckman Model 7800 liquid scintillation spectrometer.

[2] = biological target: T2, receptors in bovine striatum (3H-CCK-8-(SO3 H) binding, central receptor) (Bos taurus, UniProt P79266); assay: In vitro receptor binding assay, bovine striatum homogenate, 3H-CCK-8-(SO3H) radioligand; conditions: 0.15 nM radioligand, 30 min, 25° C.; read-out: Bovine Striatum IC50 (inhibition of specific 3H-CCK-8-(SO3H) binding)
T2 construct: receptors in homogenized preparations of rat pancreatic cells and bovine striata; from tissue; host or cells: bovine striatum homogenate (48,000 x g pellet)
T2 sequence (P79266 1-454): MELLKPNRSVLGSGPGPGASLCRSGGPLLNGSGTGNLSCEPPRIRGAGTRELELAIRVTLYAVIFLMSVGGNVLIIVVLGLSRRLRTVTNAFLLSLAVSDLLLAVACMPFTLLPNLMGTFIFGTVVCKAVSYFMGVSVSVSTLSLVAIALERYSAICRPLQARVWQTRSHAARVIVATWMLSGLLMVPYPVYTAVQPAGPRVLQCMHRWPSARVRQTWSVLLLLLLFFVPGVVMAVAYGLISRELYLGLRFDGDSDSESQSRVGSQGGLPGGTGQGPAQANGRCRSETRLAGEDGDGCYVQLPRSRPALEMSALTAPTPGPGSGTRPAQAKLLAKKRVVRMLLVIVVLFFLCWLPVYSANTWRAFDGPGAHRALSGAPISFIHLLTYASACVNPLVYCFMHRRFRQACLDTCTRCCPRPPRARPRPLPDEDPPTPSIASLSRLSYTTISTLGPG
Experimental: Frozen bovine striatum (approx. 5 g) and fresh rat pancreas (approx. 5 g) cleaned of fat and extraneous tissue were homogenized in HEPES buffer #1 (10 mM HEPES+130 mM NaCl+5 mM MgCl2. pH 7.4) using 35 parts buffer per 1 part tissue on a wet weight/volume basis (approx. 175 ml). The tissue was homogenized 2 x for approx. 15 sec. at 0° C. using a Polytron homogenizer at a setting of 6. The tissue was isolated by centrifugation at 48,000 x g for 10 min. at 0° C. The resulting tissue pellet was resuspended in HEPES buffer #2 (10 mM HEPES+130 mM NaCl+5 mM MgCl2 +1 mg/L phenylmethanesulfonyl fluoride (PMSF)+200 mg/L Bacitracin): 1 part striatal tissue (original wet weight) per 80 parts buffer and 1 part pancreas tissue (original wet weight) per 70 parts buffer.
Incubation was initiated by combining various concentrations of native CCK-8 or peptides of formula I, II and III with ^3 H-CCK-8-(SO3 H) (final conc.=0.15 nM) and tissue homogenate (striatum 0.26 mg protein in 2 ml final volume; pancreas 0.165 mg protein in 1 ml final volume). Samples were incubated for 30 min. at 25° C. and the incubation terminated by pouring the mixture onto a pre-wet Whatman GF/B filter on a Sandbeck Vacuum Filtration Manifold. The incubation tubes were washed with 2×3 ml of ice-cold HEPES Buffer #2 and the wash filtered through the GF/B filter. The filter was air dried for 10 min. and then placed in a scintillation vial with 12 ml of Beckman HP/b Ready-Solv scintillation cocktail. The vials were shaken for 2 hours and then counted using a Beckman Model 7800 liquid scintillation spectrometer. Non-specific binding was determined in the presence of 1 micromole native CCK-8 and subtracted from all samples to determine specific binding. The concentration of ^3 peptide necessary to inhibit 50% of total specific H-CCK-8-(SO3 H) binding (IC50 value) was determined by log-probit analysis.

[3] = tested on: Male Sprague-Dawley (CD) rats, food intake; assay: Two-meal feeding assay, intraperitoneal administration; assay type: in vivo, rat
Experimental: Male Sprague-Dawley (CD) rats weighing 180-200 grams (Charles River Breeding Laboratories) were acclimated to a 12 h light/dark cycle (6 a.m. to 6 p.m.) in a room kept at 22° C. They were subsequently fasted for two days, weighed, placed in individual cages, and a four-day period of meal training was begun. During this time the rats were given ground laboratory chow (Purina Lab Chow) in jars for one hour from 9:00 a.m. until 10:00 a.m., the jars were removed from 10:00 a.m. to 12:00 p.m., and placed back in the cages from 12:00 until 1:00 p.m. Under this `1-2-1` meal feeding regime most rats learn to eat approximately as much Per day during the two hours they have access to food as rats which have food ad libitum over the entire 24-hour day. On the fourth day, the rats were weighed again, and any which lost more than five grams body weight were excluded from the test. The animals were then distributed into experimental (n=5 to 6) and control groups (n=6-12). but not matched for body weight.
Peptides of the invention were suspended either in saline. if soluble, or in 1% gum arabic, if insoluble, at concentrations of 0 to 320 μg/ml/kg body weight and were administered intraperitonerally 15 min before the first meal on day 5 of meal feeding. The rats were then given their meals as they had been during the previous four days, and the food cups were weighed both before and after each meal to determine food consumption. Food intake was expressed as a mean and standard error of the mean in grams consumed or as a percent of control values for the various groups. The treated groups were compared to the control groups by t-test analysis. […]

[4] = 32 microgm/Kg i.p., 15 min before first meal, mean ± SEM

Row | IC50 [1] | IC50 [2] | SMILES | Food Intake 1st Meal [3, 4] | Food Intake 2nd Meal ([3]; 32 microgm/Kg i.p., mean ± SEM) | other results
1 | 9.4 nM | 1000 nM | CSCC[C@H](NC(=O)[C@H](Cc1ccc(OS(=O)(=O)O)cc1)NC(C)=O)C(=O)NCC(=O)N[C@@H](Cc1cn(C=O)c2ccccc12)C(=O)N[C@@H](CCSC)C(=O)N[C@H](C(=O)N(C)[C@@H](Cc1ccccc1)C(N)=O)[C@@H](C)OS(=O)(=O)O [Example 1, Ac-Tyr(SO3 H)-Met-Gly-Trp(For)-Met-Thr(SO3 H)-N-methyl-Phe-NH2] (Ac-[sY]MGW(For)M[Thr(SO3H)][NMeF]-NH2) | 23 ± 13 % of Control | 55 ± 10 % of Control | –
2 | 44 nM | 100 nM | CCCC[C@H](NC(=O)[C@H](Cc1ccc(OS(=O)(=O)O)cc1)NC(C)=O)C(=O)N[C@H](C)C(=O)N[C@@H](Cc1c[nH]c2ccccc12)C(=O)N[C@@H](CCSC)C(=O)N[C@H](C(=O)N(C)[C@@H](Cc1ccccc1)C(N)=O)[C@@H](C)OS(=O)(=O)O [Example 4, Ac-Tyr(SO3 H)-Nle-(D)Ala-Trp-Met-Thr(SO3 H)-n-Methyl-Phe-NH2] (Ac-[sY][Nle][dA]WM[Thr(SO3H)][NMeF]-NH2) | 5 ± 5 % of Control | 79 ± 13 % of Control | –
3 | 4200 nM | 4100 nM | CSCC[C@H](NC(=O)[C@H](Cc1ccc(OS(=O)(=O)O)cc1)NC(C)=O)C(=O)N[C@@H](C)C(=O)N[C@@H](Cc1cn(C=O)c2ccccc12)C(=O)N[C@@H](CCSC)C(=O)N[C@H](C(=O)N(C)[C@@H](Cc1ccccc1)C(N)=O)[C@@H](C)OS(=O)(=O)O [Example 5, Ac-Tyr(SO3 H)-Met-Ala-Trp(For)-Met-Thr(SO3 H)-N-methyl-Phe-NH2] (Ac-[sY]MAW(For)M[Thr(SO3H)][NMeF]-NH2) | 70 ± 2 % of Control | 133 ± 9 % of Control | –
4 | 100 nM | 1750 nM | CSCC[C@H](NC(=O)[C@H](Cc1ccc(OS(=O)(=O)O)cc1)NC(C)=O)C(=O)N[C@@H](C)C(=O)N[C@@H](Cc1c[nH]c2ccccc12)C(=O)N[C@@H](CCSC)C(=O)N[C@H](C(=O)N(C)[C@@H](Cc1ccccc1)C(N)=O)[C@@H](C)OS(=O)(=O)O [Example 6, Ac-Tyr(SO3 H)-Met-Ala-Trp-Met-Thr(SO3 H)-N-methyl-Phe-NH2] (Ac-[sY]MAWM[Thr(SO3H)][NMeF]-NH2) | 14 ± 6 % of Control | 114 ± 9 % of Control | –
5 | – | – | CSCC[C@H](NC(=O)[C@H](Cc1ccc(OS(=O)(=O)O)cc1)NC(=O)CNCCNC(C)=O)C(=O)NCC(=O)N[C@@H](Cc1cn(C=O)c2ccccc12)C(=O)N[C@@H](CCSC)C(=O)N[C@H](C(=O)N(C)[C@@H](Cc1ccccc1)C(N)=O)[C@@H](C)OS(=O)(=O)O [Example 7, Ac-Aeg-Tyr(SO3 H)-Met-Gly-Trp(For)-Met-Thr(SO3 H)-N-methyl-Phe-NH2] (H-[N(CH2CH2NHAc)Gly][sY]MGW(For)M[Thr(SO3H)][NMeF]-NH2) | 17 ± 9 % of Control | 95 ± 16 % of Control | –
6 | – | – | CCCC[C@H](NC(=O)[C@H](Cc1ccc(OS(=O)(=O)O)cc1)NC(C)=O)C(=O)NCC(=O)N[C@@H](Cc1c[nH]c2ccccc12)C(=O)N[C@@H](CCCC)C(=O)N[C@H](C(=O)N(C)[C@@H](Cc1ccccc1)C(N)=O)[C@@H](C)OS(=O)(=O)O [Example 13, Ac-Tyr-(SO3 H)-Nle-Gly-Trp-Nle-Thr(SO3 H)-N-methyl-Phe-NH2] (Ac-[sY][Nle]GW[Nle][Thr(SO3H)][NMeF]-NH2) | 21 ± 12 % of Control | 52 ± 13 % of Control | Food Intake 1st Meal ([3]; 1 microgm/Kg i.p.): 36 ± 4 % of Control; Food Intake 2nd Meal ([3]; 1 microgm/Kg i.p.): 71 ± 13 % of Control; Food Intake 1st Meal ([3]; 3 microgm/Kg i.p.): 23 ± 13 % of Control; Food Intake 2nd Meal ([3]; 3 microgm/Kg i.p.): 59 ± 6 % of Control; Food Intake 1st Meal ([3]; 10 microgm/Kg i.p.): 13 ± 1 % of Control; Food Intake 2nd Meal ([3]; 10 microgm/Kg i.p.): 62 ± 8 % of Control; Food Intake 1st Meal ([3]; 16 microgm/Kg i.p.): 27 ± 17 % of Control; Food Intake 2nd Meal ([3]; 16 microgm/Kg i.p.): 45 ± 11 % of Control
7 | – | – | CSCC[C@H](NC(=O)[C@H](Cc1c[nH]c2ccccc12)NC(=O)CNC(=O)[C@H](Cc1ccc(OS(=O)(=O)O)cc1)NC(C)=O)C(=O)N[C@H](C(=O)N(C)[C@@H](Cc1ccccc1)C(N)=O)[C@@H](C)OS(=O)(=O)O [Example 14, Ac-Tyr(SO3 H)-Gly-Trp-Met-Thr(SO3 H)-N-methyl-Phe-NH2] (Ac-[sY]GWM[Thr(SO3H)][NMeF]-NH2) | 36 ± 8 % of Control | 141 ± 9 % of Control | Food Intake 1st Meal ([3]; 3 microgm/Kg i.p.): 86 ± 16 % of Control; Food Intake 2nd Meal ([3]; 3 microgm/Kg i.p.): 120 % of Control; Food Intake 1st Meal ([3]; 320 microgm/Kg i.p.): 4 ± 5 % of Control; Food Intake 2nd Meal ([3]; 320 microgm/Kg i.p.): 121 ± 3 % of Control
